Measurements reported in ChEMBL document CHEMBL1133338, “Novel 3-(4-piperidinylthio)-1H-indoles as potent nonopioid orally active central analgesics” (Bioorg Med Chem Lett, 2000).

Experiments:
Mus musculus [1] = assay: Compound (at 30 mg/kg) was evaluated in vivo for the inhibition of phenylbenzoquinone induced painful reactions in mice; assay type: functional
Mus musculus [2] = assay: In vivo analgesic activity in hot plate test in mice; assay type: functional
Mus musculus [3] = assay: In vivo analgesic activity in phenylbenzoquinone-induced writhing test in mice; assay type: functional
Rattus norvegicus [4] = assay: Compound (at 60 mg/kg perorally) was tested for inhibition of Freund's adjuvant-induced polyarthritis in rats; assay type: functional; conditions: route oral
Mus musculus [5] = assay: Effective dose in mice after intraperitoneal administration by tail pinch test; assay type: functional; conditions: ip
[6] = target: Sodium-dependent serotonin transporter (Rattus norvegicus, UniProt P31652); assay: Binding affinity on Serotonin transporter was determined in rat
Rattus norvegicus [7] = assay: Compound after peroral administration was tested for inhibition of kaolin-induced arthritis in rats; assay type: functional; conditions: po
Mus musculus [8] = species on record: Mus musculus; assay: Effective dose in mice by tail pinch test
Rattus norvegicus [9] = species on record: Rattus norvegicus; assay: Compound was tested for inhibition of Freund's adjuvant-induced polyarthritis in rats; assay type: functional
Rattus norvegicus [10] = species on record: Rattus norvegicus; assay: Compound was tested for inhibition of kaolin induced arthritis in rats
Mus musculus [11] = assay: Compound (at 30 mg/kg) was evaluated in vivo for the inhibition of painful reactions in mice in the hot plate test; assay type: functional

Chain of Sodium-dependent serotonin transporter (P31652 whole entry): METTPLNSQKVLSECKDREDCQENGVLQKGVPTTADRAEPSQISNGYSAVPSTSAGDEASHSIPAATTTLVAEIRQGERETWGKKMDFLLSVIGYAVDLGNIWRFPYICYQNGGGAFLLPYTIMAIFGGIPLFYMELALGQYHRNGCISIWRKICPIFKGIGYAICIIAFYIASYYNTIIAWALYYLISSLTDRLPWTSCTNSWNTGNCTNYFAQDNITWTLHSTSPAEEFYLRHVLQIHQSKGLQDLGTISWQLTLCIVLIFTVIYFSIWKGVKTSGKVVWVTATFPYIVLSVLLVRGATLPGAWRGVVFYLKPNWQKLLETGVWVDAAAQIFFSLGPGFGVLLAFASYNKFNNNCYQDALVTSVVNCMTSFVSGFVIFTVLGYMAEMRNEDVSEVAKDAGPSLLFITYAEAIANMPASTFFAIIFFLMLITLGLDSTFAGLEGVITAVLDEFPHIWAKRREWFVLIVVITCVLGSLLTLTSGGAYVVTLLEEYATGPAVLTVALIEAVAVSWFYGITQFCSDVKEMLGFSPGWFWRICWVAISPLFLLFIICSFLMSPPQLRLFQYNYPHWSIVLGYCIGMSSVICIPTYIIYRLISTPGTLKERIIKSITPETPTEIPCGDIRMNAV

| SMILES | inhibition in vivo at 30 mg/kg (Mus musculus [1]) | ED50 (Mus musculus [2]) | ED50 (Mus musculus [3]) | also measured |
| --- | --- | --- | --- | --- |
| Cc1ccc2[nH]cc(SC3CCN(C)CC3)c2c1 | 25% | – | – | – |
| CN1CCC(Sc2cn(C)c3ccc(Cl)cc23)CC1 | – | 9.3 mg/kg | 3.9 mg/kg | – |
| Clc1ccc2[nH]cc(SC3CCNCC3)c2c1 | – | 1.2 mg/kg | 0.3 mg/kg | – |
| CON1CCC(Sc2c[nH]c3ccc(Br)cc23)CC1 | – | 3.2 mg/kg | 1.6 mg/kg | – |
| CN1CCC([S+]([O-])c2c[nH]c3ccc(Cl)cc23)CC1 (stereo not given) | 44% | – | – | – |
| CN1CCC(Sc2c[nH]c3ccc(Cl)cc23)CC1 | – | 16.9 mg/kg | 4 mg/kg | inhibition in vivo at 60 mg/kg (Rattus norvegicus [4]): 62%; ED50 (Mus musculus [5]): 25.3 mg/kg; Ki [6]: 3.01 nM; ED50 (Rattus norvegicus [7]): 4.9 mg/kg |
| Clc1ccc(-c2[nH]c3ccc(Cl)cc3c2SC2CCNCC2)cc1 | 26% | – | – | – |
| CN1CC[C@]23c4c5ccc(O)c4O[C@H]2[C@@H](O)C=C[C@H]3[C@H]1C5 [MORPHINE] | – | 28.9 mg/kg | – | ED50 (Mus musculus [8]): 15 mg/kg; Dose (Rattus norvegicus [9]): 5.2 mg/kg; ED50 (Rattus norvegicus [10]): 4.4 mg/kg |
| Cc1[nH]c2ccc(F)cc2c1SC1CCNCC1 | – | 12.7 mg/kg | 5.9 mg/kg | – |
| CN1CCC(Sc2c[nH]c3ccc(O)cc23)CC1 | 9% | – | – | – |
| CN1CCC(Sc2c[nH]c3ccccc23)CC1 | 26% | – | – | – |
| CC(C)N1CCC(Sc2c[nH]c3ccc(Cl)cc23)CC1 | 38% | – | – | – |
| CN1CCC(S(=O)(=O)c2c[nH]c3ccc(Cl)cc23)CC1 | – | 16 mg/kg | 5.4 mg/kg | – |
| CC(=O)N1CCC(Sc2c[nH]c3ccc(Cl)cc23)CC1 | – | 3.8 mg/kg | 2.9 mg/kg | – |
| CON1CCC(Sc2cn(C)c3ccc(C(=O)O)cc23)CC1 | 25% | – | – | – |
| CC(=O)N1CCC(Sc2c[nH]c3ccc(Br)cc23)CC1 | – | 2.8 mg/kg | 2.9 mg/kg | – |
| CCCC(=O)N1CCC(Sc2c[nH]c3ccc(Cl)cc23)CC1 | – | 22.7 mg/kg | 8.9 mg/kg | – |

| SMILES | inhibition in vivo at 30 mg/kg (Mus musculus [1]) | ED50 (Mus musculus [2]) | ED50 (Mus musculus [3]) | also measured |
| --- | --- | --- | --- | --- |
| COc1ccc2[nH]cc(SC3CCN(C)CC3)c2c1 | – | – | 24.9 mg/kg | – |
| CCN1CCC(Sc2c[nH]c3ccc(Cl)cc23)CC1 | 42% | 33.3 mg/kg | – | – |
| CON1CCC(Sc2c[nH]c3ccc(Cl)cc23)CC1 | – | 2.3 mg/kg | 1.4 mg/kg | – |
| CC(C)c1ccc2[nH]cc(SC3CCN(C)CC3)c2c1 | 48% | – | – | – |
| CN1CCC(Sc2c[nH]c3ccc(I)cc23)CC1 | – | – | 54.2 mg/kg | – |
| Cc1c(SC2CCNCC2)c2cc(Cl)ccc2n1Cc1ccc(Cl)cc1 | 27% | – | – | – |
| O=S(=O)(c1c[nH]c2ccc(Cl)cc12)C1CCNCC1 | – | 8.4 mg/kg | 12.5 mg/kg | – |
| Clc1ccc2[nH]cc(SC3CCN(Cc4ccccc4)CC3)c2c1 | – | – | 9.7 mg/kg | inhibition in vivo at 30 mg/kg (Mus musculus [11]): 32% |
| Cc1[nH]c2ccc(F)cc2c1SC1CCN(C)CC1 | – | – | 35.6 mg/kg | – |
| Cc1[nH]c2ccc(Cl)cc2c1SC1CCNCC1 | – | 9.9 mg/kg | 0.8 mg/kg | – |
| CN1CCC(Sc2cn(C)c3ccc(Br)cc23)CC1 | – | 8.6 mg/kg | 5.4 mg/kg | – |
| O=CN1CCC(Sc2c[nH]c3ccc(Br)cc23)CC1 | 31% | – | – | – |
| Clc1ccc2[nH]cc(SC3CCN(CCc4ccccc4)CC3)c2c1 | – | – | 8.9 mg/kg | inhibition in vivo at 30 mg/kg (Mus musculus [11]): 14% |
| Cc1[nH]c2ccc(Br)cc2c1SC1CCNCC1 | – | 3.1 mg/kg | 0.7 mg/kg | – |
| Cc1[nH]c2ccc(C(F)(F)F)cc2c1SC1CCNCC1 | – | – | 19.4 mg/kg | inhibition in vivo at 30 mg/kg (Mus musculus [11]): 41% |
| CCCCn1cc(SC2CCN(C)CC2)c2cc(Br)ccc21 | 21% | – | – | – |
| CCOC(=O)N1CCC(Sc2c[nH]c3ccc(Br)cc23)CC1 | – | 27.3 mg/kg | 6.3 mg/kg | – |
